Experimental data as given in article PMC5218480 (PLoS ONE, 2017).

System: MV-4-11 cells
Assay: Gene expression microarray analysis (Affymetrix PrimeView) and GSEA
Type: cell-based, human
Design: RFU PODN (11730768_x_at) / Fold change /veh PODN (11730768_x_at) / RFU LINC00158 (11744669_a_at) / Fold change /veh LINC00158 (11744669_a_at) / RFU DUSP10 (11751237_a_at) / Fold change /veh DUSP10 (11751237_a_at) / RFU ID3 (11757404_x_at) / Fold change /veh ID3 (11757404_x_at) / RFU PLEKHG5 (11737974_s_at) / Fold change /veh PLEKHG5 (11737974_s_at) / RFU LRRC4B (11730491_at) / Fold change /veh LRRC4B (11730491_at) / RFU GIMAP4 (11747438_a_at) / Fold change /veh GIMAP4 (11747438_a_at) / RFU KRT8 (11758183_x_at) / Fold change /veh KRT8 (11758183_x_at) / RFU CNN1 (11734310_a_at) / Fold change /veh CNN1 (11734310_a_at) / RFU VPS37D (11726825_at) / Fold change /veh VPS37D (11726825_at) / RFU C10orf10 (11716522_x_at) / Fold change /veh C10orf10 (11716522_x_at) / RFU KIR2DL2 /// KIR2DL4 /// KIR2DL5A /// KIR2DL5B /// KIR2DS1 /// KIR2DS2 /// KIR2DS3 /// KIR2DS4 /// KIR3DL3 /// KIR3DL3 /// KIR3DS1 (11738374_at) / Fold change /veh KIR2DL2 /// KIR2DL4 /// KIR2DL5A /// KIR2DL5B /// KIR2DS1 /// KIR2DS2 /// KIR2DS3 /// KIR2DS4 /// KIR3DL3 /// KIR3DL3 /// KIR3DS1 (11738374_at) / RFU C1QL1 (11718748_at) / Fold change /veh C1QL1 (11718748_at) / RFU TMPRSS4 (11747572_a_at) / Fold change /veh TMPRSS4 (11747572_a_at) / RFU HAMP (11756126_x_at) / Fold change /veh HAMP (11756126_x_at) / RFU RNFT2 (11725882_a_at) / Fold change /veh RNFT2 (11725882_a_at) / RFU NR4A2 (11747474_a_at) / Fold change /veh NR4A2 (11747474_a_at) / RFU ABCC12 (11746883_a_at) / Fold change /veh ABCC12 (11746883_a_at) / RFU TMEM136 (11760407_x_at) / Fold change /veh TMEM136 (11760407_x_at) / RFU CLDN22 /// WWC2 (11732394_at) / Fold change /veh CLDN22 /// WWC2 (11732394_at) / RFU HLA-DPB1 (11760878_x_at) / Fold change /veh HLA-DPB1 (11760878_x_at) / RFU SPINT1 (11716480_a_at) / Fold change /veh SPINT1 (11716480_a_at) / RFU GAP43 (11754022_s_at) / Fold change /veh GAP43 (11754022_s_at) / RFU A4GNT (11735810_at) / Fold change /veh A4GNT (11735810_at) / RFU PRB3 (11715151_x_at) / Fold change /veh PRB3 (11715151_x_at) / RFU TUBB4B (11761932_at) / Fold change /veh TUBB4B (11761932_at) / RFU CAPN14 (11732068_a_at) / Fold change /veh CAPN14 (11732068_a_at) / RFU TMCC2 (11721928_a_at) / Fold change /veh TMCC2 (11721928_a_at) / RFU IRGQ (11745062_a_at) / Fold change /veh IRGQ (11745062_a_at) / RFU FAM174B (11720279_a_at) / Fold change /veh FAM174B (11720279_a_at) / RFU TMPRSS4 (11748680_a_at) / Fold change /veh TMPRSS4 (11748680_a_at) / RFU FAM212B (11763350_a_at) / Fold change /veh FAM212B (11763350_a_at) / RFU PLEKHG5 (11743358_a_at) / Fold change /veh PLEKHG5 (11743358_a_at) / RFU ZSCAN30 (11745921_a_at) / Fold change /veh ZSCAN30 (11745921_a_at) / RFU CMKLR1 (11741424_a_at) / Fold change /veh CMKLR1 (11741424_a_at) / RFU LOC101060620 /// MAPK8IP1 (11723275_at) / Fold change /veh LOC101060620 /// MAPK8IP1 (11723275_at) / RFU SPTSSB (11747773_x_at) / Fold change /veh SPTSSB (11747773_x_at) / RFU PRSS12 (11739890_at) / Fold change /veh PRSS12 (11739890_at) / RFU BIN1 (11741810_x_at) / Fold change /veh BIN1 (11741810_x_at) / RFU WNT11 (11732464_a_at) / Fold change /veh WNT11 (11732464_a_at) / RFU C10orf10 (11716521_a_at) / Fold change /veh C10orf10 (11716521_a_at) / RFU C5orf56 (11738089_at) / Fold change /veh C5orf56 (11738089_at) / RFU CYB561 (11721691_x_at) / Fold change /veh CYB561 (11721691_x_at) / RFU ANKRD19P (11752326_a_at) / Fold change /veh ANKRD19P (11752326_a_at) / RFU OR2T12 /// OR2T33 /// OR2T8 (11738714_s_at) / Fold change /veh OR2T12 /// OR2T33 /// OR2T8 (11738714_s_at) / RFU VCAN (11748164_a_at) / Fold change /veh VCAN (11748164_a_at) / RFU JSRP1 (11732532_at) / Fold change /veh JSRP1 (11732532_at) / RFU KRTAP10-11 (11738290_x_at) / Fold change /veh KRTAP10-11 (11738290_x_at) / RFU MYO3A (11730013_a_at) / Fold change /veh MYO3A (11730013_a_at) / RFU EBF3 (11725865_a_at) / Fold change /veh EBF3 (11725865_a_at) / RFU CAMK2N1 (11719241_x_at) / Fold change /veh CAMK2N1 (11719241_x_at) / RFU C5orf56 (11738088_a_at) / Fold change /veh C5orf56 (11738088_a_at) / RFU OLFML3 (11715873_a_at) / Fold change /veh OLFML3 (11715873_a_at) / RFU LOC100653217 /// NTM (11731650_a_at) / Fold change /veh LOC100653217 /// NTM (11731650_a_at) / RFU MAPK11 (11762145_a_at) / Fold change /veh MAPK11 (11762145_a_at) / RFU FIZ1 (11724087_x_at) / Fold change /veh FIZ1 (11724087_x_at) / RFU OASL (11726364_x_at) / Fold change /veh OASL (11726364_x_at) / RFU SOX15 (11748057_x_at) / Fold change /veh SOX15 (11748057_x_at) / RFU CD79A (11719716_a_at) / Fold change /veh CD79A (11719716_a_at) / RFU HIST1H1D (11736915_at) / Fold change /veh HIST1H1D (11736915_at) / RFU CASKIN2 (11723855_a_at) / Fold change /veh CASKIN2 (11723855_a_at) / RFU LOC730098 (11760151_x_at) / Fold change /veh LOC730098 (11760151_x_at) / RFU OR4N2 (11742367_at) / Fold change /veh OR4N2 (11742367_at) / RFU PRRT2 (11749266_a_at) / Fold change /veh PRRT2 (11749266_a_at) / RFU SNX32 (11753110_a_at) / Fold change /veh SNX32 (11753110_a_at) / RFU CDHR5 (11726645_a_at) / Fold change /veh CDHR5 (11726645_a_at) / RFU RCAN1 (11760418_a_at) / Fold change /veh RCAN1 (11760418_a_at) / RFU FAM167A (11723789_a_at) / Fold change /veh FAM167A (11723789_a_at) / RFU FAM26E (11764081_at) / Fold change /veh FAM26E (11764081_at) / RFU ISYNA1 (11749810_s_at) / Fold change /veh ISYNA1 (11749810_s_at) / RFU ACY1 (11761880_at) / Fold change /veh ACY1 (11761880_at) / RFU 11764098_at / Fold change /veh 11764098_at / RFU SAMD14 (11745864_x_at) / Fold change /veh SAMD14 (11745864_x_at) / RFU NPB (11741838_a_at) / Fold change /veh NPB (11741838_a_at) / RFU TMPRSS6 (11731388_a_at) / Fold change /veh TMPRSS6 (11731388_a_at) / RFU KRTAP10-2 (11738614_at) / Fold change /veh KRTAP10-2 (11738614_at) / RFU ARHGAP8 /// PRR5-ARHGAP8 (11727945_x_at) / Fold change /veh ARHGAP8 /// PRR5-ARHGAP8 (11727945_x_at) / RFU KRTAP5-7 /// NADSYN1 (11734609_at) / Fold change /veh KRTAP5-7 /// NADSYN1 (11734609_at) / RFU RASL12 (11751679_a_at) / Fold change /veh RASL12 (11751679_a_at) / RFU CDKN2B (11736163_a_at) / Fold change /veh CDKN2B (11736163_a_at) / RFU PRF1 (11729649_at) / Fold change /veh PRF1 (11729649_at) / RFU, ZNF638 /// ZNF638-IT1 / Fold change vs veh, ZNF638 /// ZNF638-IT1 / RFU, PANK3 / Fold change vs veh, PANK3 / RFU, SH3YL1 / Fold change vs veh, SH3YL1 / RFU, ZEB2 / Fold change vs veh, ZEB2 / RFU, NRIP1 / Fold change vs veh, NRIP1 / RFU, PTTG1IP / Fold change vs veh, PTTG1IP / RFU, CAPN2 / Fold change vs veh, CAPN2 / RFU, MED14 / Fold change vs veh, MED14 / RFU, SNORA58 / Fold change vs veh, SNORA58 / RFU, C1orf63 / Fold change vs veh, C1orf63 / RFU, LRRFIP1 / Fold change vs veh, LRRFIP1 / RFU, NDUFAF7 / Fold change vs veh, NDUFAF7 / RFU, SLC12A2 / Fold change vs veh, SLC12A2 / RFU, IBTK / Fold change vs veh, IBTK / RFU, ESF1 / Fold change vs veh, ESF1 / Fold change vs veh, TMEM50B / RFU, TAOK1 / Fold change vs veh, TAOK1 / RFU, ACBD3 / Fold change vs veh, ACBD3 / RFU, TMA16 / Fold change vs veh, TMA16 / RFU, RWDD3 / Fold change vs veh, RWDD3 / RFU, BCAT1 / Fold change vs veh, BCAT1 / RFU, EDEM3 / Fold change vs veh, EDEM3 / RFU, TMEM33 / Fold change vs veh, TMEM33 / RFU, WDR75 / Fold change vs veh, WDR75 / RFU, AHCTF1 / Fold change vs veh, AHCTF1 / RFU, TFRC / Fold change vs veh, TFRC / RFU, ZDHHC17 / Fold change vs veh, ZDHHC17 / RFU, NOM1 / Fold change vs veh, NOM1 / RFU, ARL8B / Fold change vs veh, ARL8B / RFU, ZBTB11 / Fold change vs veh, ZBTB11 / RFU, TAMM41 / Fold change vs veh, TAMM41 / RFU, KIAA1704 /// LOC100996395 / Fold change vs veh, KIAA1704 /// LOC100996395 / RFU, ING1 / Fold change vs veh, ING1 / RFU, TRMT61B / Fold change vs veh, TRMT61B / RFU, FUBP3 / Fold change vs veh, FUBP3 / RFU, TP53 / Fold change vs veh, TP53 / RFU, TNKS2 / Fold change vs veh, TNKS2 / RFU, ZFP14 / Fold change vs veh, ZFP14 / RFU, ACTR2 / Fold change vs veh, ACTR2 / RFU, PPP3R1 / Fold change vs veh, PPP3R1 / RFU, PIK3R1 / Fold change vs veh, PIK3R1 / RFU, HNRNPA1 / Fold change vs veh, HNRNPA1 / RFU, RNF170 / Fold change vs veh, RNF170 / RFU, ZNF28 / Fold change vs veh, ZNF28 / RFU, RNGTT / Fold change vs veh, RNGTT / RFU, OGT / Fold change vs veh, OGT / RFU, BRD1 / Fold change vs veh, BRD1 / RFU, MARS / Fold change vs veh, MARS / RFU, ZNF655 / Fold change vs veh, ZNF655 / RFU, FAHD1 / Fold change vs veh, FAHD1 / RFU, BDP1 / Fold change vs veh, BDP1 / RFU, LRRCC1 / Fold change vs veh, LRRCC1 / RFU, ARID1A / Fold change vs veh, ARID1A / RFU, ZNF146 / Fold change vs veh, ZNF146 / RFU, ZNF330 / Fold change vs veh, ZNF330 / RFU, GPN3 / Fold change vs veh, GPN3 / RFU, C9orf123 / Fold change vs veh, C9orf123 / RFU, N4BP2L2 / Fold change vs veh, N4BP2L2 / RFU, ARFIP1 / Fold change vs veh, ARFIP1 / RFU, FAM179B / Fold change vs veh, FAM179B / RFU, BCL10 / Fold change vs veh, BCL10 / RFU, UHRF1BP1L / Fold change vs veh, UHRF1BP1L / RFU, BET1 / Fold change vs veh, BET1 / RFU, CNOT2 / Fold change vs veh, CNOT2 / RFU, ZNF268 / Fold change vs veh, ZNF268 / Fold change vs veh, ZNF507 / RFU, DGCR2 / Fold change vs veh, DGCR2 / RFU, WDSUB1 / Fold change vs veh, WDSUB1 / Fold change vs veh, HSP90B1 /// MIR3652 / RFU, ADSS / Fold change vs veh, ADSS / RFU, GK / Fold change vs veh, GK / RFU, ZNF148 / Fold change vs veh, ZNF148 / RFU, TAF9 / Fold change vs veh, TAF9 / RFU, SLC1A5 / Fold change vs veh, SLC1A5 / RFU, SLMO2 / Fold change vs veh, SLMO2 / RFU, ABCC4 / Fold change vs veh, ABCC4 / RFU, LOC101060439 /// RAP1B / Fold change vs veh, LOC101060439 /// RAP1B / RFU, RFX7 / Fold change vs veh, RFX7 / RFU, GTPBP10 / Fold change vs veh, GTPBP10 / RFU, CNEP1R1 / Fold change vs veh, CNEP1R1 / RFU, BIVM-ERCC5 /// ERCC5 / Fold change vs veh, BIVM-ERCC5 /// ERCC5 / RFU, ILF3 / Fold change vs veh, ILF3 / RFU 11762660_at / Fold change /veh 11762660_at / RFU VCAN (11757783_s_at) / Fold change /veh VCAN (11757783_s_at) / RFU DDX43 (11728927_at) / Fold change /veh DDX43 (11728927_at) / RFU KRT8 (11758188_x_at) / Fold change /veh KRT8 (11758188_x_at) / RFU NKD1 (11759106_at) / Fold change /veh NKD1 (11759106_at) / RFU SRD5A1 (11742802_a_at) / Fold change /veh SRD5A1 (11742802_a_at) / RFU TPSAB1 /// TPSB2 (11721975_s_at) / Fold change /veh TPSAB1 /// TPSB2 (11721975_s_at) / RFU GSTM3 (11746129_a_at) / Fold change /veh GSTM3 (11746129_a_at) / RFU IL23R (11737362_x_at) / Fold change /veh IL23R (11737362_x_at) / RFU TMEM51 (11727254_a_at) / Fold change /veh TMEM51 (11727254_a_at) / RFU PIWIL2 (11732686_x_at) / Fold change /veh PIWIL2 (11732686_x_at) / RFU ORM1 (11744905_x_at) / Fold change /veh ORM1 (11744905_x_at) / RFU CCDC152 (11743942_at) / Fold change /veh CCDC152 (11743942_at) / RFU ECM1 (11717891_a_at) / Fold change /veh ECM1 (11717891_a_at) / RFU IL23R (11748794_a_at) / Fold change /veh IL23R (11748794_a_at) / RFU TNFAIP8L3 (11732012_x_at) / Fold change /veh TNFAIP8L3 (11732012_x_at) / RFU MBOAT4 (11741988_at) / Fold change /veh MBOAT4 (11741988_at) / RFU 11764193_at / Fold change /veh 11764193_at / RFU TMEM53 (11763286_at) / Fold change /veh TMEM53 (11763286_at) / RFU MAGEB2 (11727129_at) / Fold change /veh MAGEB2 (11727129_at) / RFU TMEM200A (11744735_a_at) / Fold change /veh TMEM200A (11744735_a_at) / RFU CCDC152 (11751479_a_at) / Fold change /veh CCDC152 (11751479_a_at) / RFU FAM211A (11726209_a_at) / Fold change /veh FAM211A (11726209_a_at) / RFU RGS16 (11746705_a_at) / Fold change /veh RGS16 (11746705_a_at) / RFU VCAN (11755009_s_at) / Fold change /veh VCAN (11755009_s_at) / RFU RHOB (11743442_s_at) / Fold change /veh RHOB (11743442_s_at) / RFU RGS16 (11720943_a_at) / Fold change /veh RGS16 (11720943_a_at) / RFU RGS16 (11720944_at) / Fold change /veh RGS16 (11720944_at) / RFU, VPS4B / Fold change vs veh, VPS4B / RFU, CREB1 / Fold change vs veh, CREB1 / RFU, DNAJC13 / Fold change vs veh, DNAJC13 / RFU, GNAQ / Fold change vs veh, GNAQ / RFU, CDK5R1 / Fold change vs veh, CDK5R1 / RFU, ZRANB3 / Fold change vs veh, ZRANB3 / RFU, CUL4A / Fold change vs veh, CUL4A / RFU, CCNY / Fold change vs veh, CCNY / RFU, UFL1 / Fold change vs veh, UFL1 / RFU, COG3 / Fold change vs veh, COG3 / RFU, DIAPH2 / Fold change vs veh, DIAPH2 / RFU, SKA2 / Fold change vs veh, SKA2 / RFU, AFF3 / Fold change vs veh, AFF3 / RFU, LMF1 / Fold change vs veh, LMF1 / RFU, IPO11 / Fold change vs veh, IPO11 / RFU, DFFB / Fold change vs veh, DFFB / RFU, FOXP1 / Fold change vs veh, FOXP1 / RFU, CARD8 / Fold change vs veh, CARD8 / RFU, STRN3 / Fold change vs veh, STRN3 / RFU, ADK / Fold change vs veh, ADK / RFU, RASSF2 / Fold change vs veh, RASSF2 / RFU, WIPF1 / Fold change vs veh, WIPF1 / RFU, LARP1B / Fold change vs veh, LARP1B / RFU, RASA1 / Fold change vs veh, RASA1 / RFU, RB1 / Fold change vs veh, RB1 / RFU, PPFIA1 / Fold change vs veh, PPFIA1 / RFU, MAT2A / Fold change vs veh, MAT2A / RFU, CCT5 / Fold change vs veh, CCT5 / RFU, WDR92 / Fold change vs veh, WDR92 / RFU, CUX1 / Fold change vs veh, CUX1 / RFU, TTC7A / Fold change vs veh, TTC7A / RFU, TMEM135 / Fold change vs veh, TMEM135 / RFU, DEPTOR / Fold change vs veh, DEPTOR / RFU, CPM / Fold change vs veh, CPM / RFU, DNAJB6 / Fold change vs veh, DNAJB6 / RFU, CACNA2D3 / Fold change vs veh, CACNA2D3 / RFU, DTX4 / Fold change vs veh, DTX4 / RFU, TFCP2 / Fold change vs veh, TFCP2 / RFU, GMCL1 /// GMCL1P1 / Fold change vs veh, GMCL1 /// GMCL1P1 / RFU, AEBP2 / Fold change vs veh, AEBP2 / RFU, SNHG1 /// SNORD22 /// SNORD25 /// SNORD26 /// SNORD27 /// SNORD28 /// SNORD29 /// SNORD31 / Fold change vs veh, SNHG1 /// SNORD22 /// SNORD25 /// SNORD26 /// SNORD27 /// SNORD28 /// SNORD29 /// SNORD31 / Fold change (Aza/veh), C12orf56 (ProbeSet 11735607_a_at) / Fold change (ACY-1035/veh), C12orf56 (ProbeSet 11735607_a_at) / Fold change (Aza/veh), FGFR1OP (ProbeSet 11751329_s_at) / Fold change (ACY-1035/veh), FGFR1OP (ProbeSet 11751329_s_at) / Fold change (Aza/veh), VPS36 (ProbeSet 11739960_a_at) / Fold change (ACY-1035/veh), VPS36 (ProbeSet 11739960_a_at) / RFU SYPL1 (11715823_x_at) / Fold change /veh SYPL1 (11715823_x_at) / RFU IGFBP7 (11715501_s_at) / Fold change /veh IGFBP7 (11715501_s_at) / RFU REEP3 (11722064_at) / Fold change /veh REEP3 (11722064_at) / RFU IGLL1 (11728026_x_at) / Fold change /veh IGLL1 (11728026_x_at): dose or concentration left out as unconfirmed
Conditions: MV-4-11 cells, 48 hours

## Nc1ccc(-c2cccs2)cc1NC(=O)c1ccc2c(c1)cc(C1CC1)n2CCN1CCOCC1 [ACY-1035]
  Fold change /veh CYB561 (11721691_x_at): 0.97
